Here are results for 13 compounds from US20130121994A1, “TRIAZOLOPYRIDINE DERIVATIVES” (BAYER INTELLECTUAL PROPERTY GMBH, priority 2009, published 2013).

Some results are limits rather than exact numbers.

The target in this assay is T1, human kinase Mps-1 (Homo sapiens, UniProt P33981).
T1 construct: N-terminally GST-tagged human full length recombinant Mps-1 kinase; GST (N); purchased Invitrogen, Karslruhe, Germany PV4071
T1 sequence (P33981 1-857): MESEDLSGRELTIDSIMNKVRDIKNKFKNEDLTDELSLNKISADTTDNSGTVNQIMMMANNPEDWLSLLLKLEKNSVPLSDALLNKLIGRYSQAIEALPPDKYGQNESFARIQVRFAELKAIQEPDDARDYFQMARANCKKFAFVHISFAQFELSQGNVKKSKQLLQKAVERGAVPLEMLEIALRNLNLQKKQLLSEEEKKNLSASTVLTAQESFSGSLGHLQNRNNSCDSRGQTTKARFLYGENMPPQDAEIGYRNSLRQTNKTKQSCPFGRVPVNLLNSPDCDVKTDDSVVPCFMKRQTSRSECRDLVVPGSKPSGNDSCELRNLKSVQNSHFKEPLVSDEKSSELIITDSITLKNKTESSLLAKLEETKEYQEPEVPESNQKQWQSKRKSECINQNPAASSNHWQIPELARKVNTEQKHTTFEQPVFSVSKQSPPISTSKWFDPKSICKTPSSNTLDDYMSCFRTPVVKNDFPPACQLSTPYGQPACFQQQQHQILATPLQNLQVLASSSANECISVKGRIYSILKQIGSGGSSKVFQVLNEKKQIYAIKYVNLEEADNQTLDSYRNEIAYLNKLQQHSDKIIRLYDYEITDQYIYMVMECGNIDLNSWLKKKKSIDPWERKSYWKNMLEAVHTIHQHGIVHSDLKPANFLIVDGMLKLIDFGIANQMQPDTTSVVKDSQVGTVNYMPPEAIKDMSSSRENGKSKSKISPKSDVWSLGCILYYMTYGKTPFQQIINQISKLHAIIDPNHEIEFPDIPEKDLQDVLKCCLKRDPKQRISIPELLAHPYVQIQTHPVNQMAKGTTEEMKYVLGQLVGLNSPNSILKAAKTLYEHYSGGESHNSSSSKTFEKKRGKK
Kind of assay: Mps-1 kinase assay (HTRF). The class given is biochemical.

By IC50 is commonly meant the concentration that gives 50% inhibition. For the compound `CC(C)(C)NC(=O)c1cccc(-c2ccc3nc(Nc4ccccc4C#N)nn3c2)c1` [Example 11.045, N-tert-butyl-3-{2-[(2-cyanophenyl)amino][1,2,4]triazolo[1,5-a]pyridin-6-yl}benzamide], the half-maximal inhibitory concentration (IC50) amounted to 1.18 nM. This lies in the single-digit nanomolar range. With `N#Cc1ccccc1Nc1nc2ccc(-c3cccc(C(=O)NCC(F)(F)C(F)(F)F)c3)cn2n1` [Example 11.043, 3-{2-[(2-cyanophenyl)amino][1,2,4]triazolo[1,5-a]pyridin-6-yl}-N-(2,2,3,3,3-pentafluoropropyl)benzamide] the figure was no more than 1 nM; with `COc1ccc(F)cc1Nc1nc2ccc(-c3cccc(NC(C)=O)c3)cn2n1` [Example 2.2, N-(3-{2-[(5-fluoro-2-methoxyphenyl)amino] [1,2,4]triazolo[1,5-a]pyridin-6-yl}phenyl)acetamide], 470 nM; with `COCCNC(=O)c1cccc(-c2ccc3nc(Nc4ccccc4C#N)nn3c2)c1` [Example 11.068, 3-{2-[(2-cyanophenyl)amino][1,2,4]triazolo[1,5-a]pyridin-6-yl}-N-(2-methoxyethyl)benzamide], 24.7 nM. With `CC(C)(C)NC(=O)c1ccc(-c2ccc3nc(Nc4ccccc4C#N)nn3c2)cc1` [Example 11.014, N-tert-butyl-4-{2-[(2-cyanophenyl)amino][1,2,4]triazolo[1,5-a]pyridin-6-yl}benzamide] the figure was 42.5 nM; with `O=C(NCCO)c1ccc(Nc2nc3ccc(-c4ccc(C(=O)NCC(F)(F)F)cc4)cn3n2)c(OCC(F)(F)F)c1` [Example 11.037, N-(2-hydroxyethyl)-3-(2,2,2-trifluoroethoxy)-4-[(6-{4-[(2,2,2-trifluoroethyl)carbamoyl]phenyl}[1,2,4]triazolo [1,5-a]pyridin-2-yl)amino]benzamide], no more than 1 nM; with `N#Cc1ccccc1Nc1nc2ccc(-c3cccc(C(N)=O)c3)cn2n1` [Example 3.8, 3-{2-[(2-cyanophenyl)amino] [1,2,4]triazolo[1,5-a]pyridin-6-yl}benzamide], 110 nM.

`COc1cc(C(=O)NCCS(C)(=O)=O)ccc1Nc1nc2ccc(-c3cccc(C(=O)NCC(F)(F)F)c3)cn2n1` [Example 11.080, 3-methoxy-N-[2-(methylsulfonyl)ethyl]-4-[(6-{3-[(2,2,2-trifluoroethyl)carbamoyl]phenyl}[1,2,4]triazolo [1,5-a]pyridin-2-yl)amino]benzamide] registered a concentration for half-maximal inhibition (IC50) of no more than 1 nM.

On to `CC(C)CNC(=O)c1cccc(-c2ccc3nc(Nc4ccccc4C#N)nn3c2)c1` [Example 11.049, 3-{2-[(2-cyanophenyl)amino][1,2,4]triazolo[1,5-a]pyridin-6-yl}-N-isobutylbenzamide], for which inhibition was half-maximal at 3.39 nM (IC50).

For the compound `N#Cc1ccccc1Nc1nc2ccc(-c3cccc(C(=O)O)c3)cn2n1` [Example 9.2, 3-{2-[(2-cyanophenyl)amino][1,2,4]triazolo[1,5-a]pyridin-6-yl}benzoic acid], the concentration for half-maximal inhibition (IC50) was 72 nM. Against the preceding compound, the IC50 is about 21-fold higher. Then `CCOc1ncccc1Nc1nc2ccc(-c3ccc(C(=O)NCC(F)(F)F)cc3)cn2n1` [Example 11.003, 4-{2-[(2-ethoxypyridin-3-yl)amino][1,2,4]triazolo[1,5-a]pyridin-6-yl}-N-(2,2,2-trifluoroethyl)benzamide], with 3.74 nM; and `CC(C)(CO)NC(=O)c1ccc(Nc2nc3ccc(-c4cccc(C(=O)NCC(F)(F)F)c4)cn3n2)c(OCC(F)(F)F)c1` [Example 11.094, N-(1-hydroxy-2-methylpropan-2-yl)-3-(2,2,2-trifluoroethoxy)-4-[(6-{3-[(2,2,2-trifluoroethyl)carbamoyl]phenyl}[1,2,4]triazolo [1,5-a]pyridin-2-yl)amino]benzamide], with no more than 1 nM.

On to `C[C@H](NC(=O)c1cccc(-c2ccc3nc(Nc4ccccc4C#N)nn3c2)c1)C(F)(F)F` [Example 11.064, 3-{2-[(2-cyanophenyl)amino][1,2,4]triazolo[1,5-a]pyridin-6-yl}-N-[(2S)-1,1,1-trifluoropropan-2-yl]benzamide], for which the half-inhibitory concentration (IC50) is 26.5 nM.
